Results taken from patent US6296785A, “Indeno-fused photochromic naphthopyrans” (PPG Industries Ohio, Inc., priority 2000, dated 2001).

Assays:
Assay type in all cases: physicochemical
[1] = photochromic response of test squares on an optical bench (sensitivity, saturation optical density, bleach rate); conditions: for ΔOD @ Saturation (Band A) / ΔOD @ Saturation (Band B): UV exposure 15 minutes; for ΔOD @ Saturation (Band A) / Sensitivity ΔOD/MIN (Band A) / ΔOD @ Saturation (Band B) / Sensitivity ΔOD/MIN (Band B): 72° F. (22.2° C.), polymer test square; for Sensitivity ΔOD/MIN (Band A) / Sensitivity ΔOD/MIN (Band B): first five (5) seconds of UV exposure, expressed per minute; for Bleach Rate T 1/2: measured at band B, room temperature (72° F., 22.2° C.) after removal of activating light
Protocol: (§1) Testing was done with the photochromic compounds described in Examples 1 through 20 and Comparative Examples 1 through 3 in the following manner. A quantity of photochromic compound calculated to yield a 1.5×10^-3 molal solution was added to a flask containing 50 grams of a monomer blend of 4 parts ethoxylated bisphenol A dimethacrylate (BPA 2EO DMA), 1 part poly(ethylene glycol) 600 dimethacrylate, and 0.033 weight percent 2,2'-azobis(2-methyl propionitrile) (AIBN). The photochromic compound was dissolved into the monomer blend by stirring and gentle heating, if necessary. After a clear solution was obtained, it was poured into a flat sheet mold having the interior dimensions of 2.2 mm×6 inches (15.24 cm)×6 inches (15.24 cm). The mold was sealed and placed in a horizontal air flow, programmable oven programmed to increase the temperature from 40° C. to 95° C. over a 5 hour interval, hold the temperature at 95° C. for 3 hours, lower it to 60° C. over a 2 hour interval and then hold it at 60° C. for 16 hours. After the mold was opened, the polymer sheet was cut using a diamond blade saw into 2 inch (5.1 centimeters) test squares.
(§2) The photochromic test squares of Part A were tested for photochromic response rates on an optical bench. Prior to testing on the optical bench, the photochromic test squares were exposed to 365 nanometer ultraviolet light for about 15 minutes to activate the photochromic compounds and then placed into a 76° C. oven for about 15 minutes to bleach the photochromic compounds. The test squares were then cooled to room temperature, exposed to fluorescent room lighting for at least 2 hours and then kept covered for at least 2 hours prior to testing on an optical bench maintained at 72° F. (22.2° C.). The bench was fitted with a 250 watt Xenon arc lamp, a remote controlled shutter, a copper sulfate bath acting as a heat sink for the arc lamp, a Schott WG-320 nm cut-off filter which removes short wavelength radiation; neutral density filter(s) and a sample holder in which the square to be tested was inserted. The power output of the optical bench, i.e., the dosage of light that the sample lens would be exposed to, was calibrated with a photochromic test square used as a reference standard. […] The UV-A detector was placed into the sample holder and the light output was measured. Adjustments to the power output were made by increasing or decreasing the lamp wattage or by adding or removing neutral density filters in the light path.
A monitoring, collimated beam of light from a tungsten lamp was passed through the square at a small angle (approximately 30°) normal to the square. After passing through the square, the light from the tungsten lamp was directed to a detector through Spectral Energy Corp. GM-200 monochromator set at the previously determined visible lambda max of the photochromic compound being measured. The output signals from the detector were processed by a radiometer.
(§3) Change in optical density (ΔOD) was determined by inserting a test square in the bleached state into the sample holder, adjusting the transmittance scale to 100%, opening the shutter from the Xenon lamp to provide ultraviolet radiation to change the test square from the bleached state to an activated (i.e., darkened) state, measuring the transmittance in the activated state, and calculating the change in optical density according to the formula: ΔOD=log(100/% Ta), where % Ta is the percent transmittance in the activated state and the logarithm is to the base 10.
The ΔOD/Min, which represents the sensitivity of the photochromic compound's response to UV light, was measured over the first five (5) seconds of UV exposure, then expressed on a per minute basis. The saturation optical density (ΔOD@ Saturation) was taken under identical conditions as the ΔOD/Min, except UV exposure was continued for 15 minutes. […]

[2] = lambda max (Vis) of activated photochromic test squares in a Varian Cary 3 uv-visible spectrophotometer; conditions: activated form in test square
Protocol: as §1
The lambda max (Vis) is the wavelength in the visible spectrum at which the maximum absorption of the activated (colored) form of the photochromic compound in a test square occurs. The lambda max (Vis) wavelengths reported in Table 1 were determined by testing the photochromic test square polymerizates of Part A in a Varian Cary 3 uv-visible spectrophotometer. The bleach rate (T 1/2) is the time interval in seconds for the absorbance of the activated form of the photochromic compound in the test squares to read one half the highest absorbance at room temperature (72° F., 22.2° C.) after removal of the source of activating light.
For each lambda max visible, the corresponding optical density (Δ OD/Min and Δ OD at saturation) for the desired compounds of the Examples and Comparative Examples are tabulated in Table 1 for the two bands (A and B) of peak absorption for each compound. Table 1 also includes the bleach rate (T 1/2) for each of the compounds as measured at band B. The ratings of the Relative Δ OD at Saturation Test for the bands A and B of each of the Examples and Comparative Examples are calculated as follows: Δ OD at saturation (Band A)/Δ OD at saturation (Band B)×100.

[3] = Relative ΔOD at Saturation Test; conditions: ΔOD at saturation (Band A)/ΔOD at saturation (Band B)×100
Text: In accordance with the present invention, it has now been discovered that certain novel indeno[2,1-f]naphtho[1,2-b]pyrans having two absorption bands in the activated (colored) state, an acceptable fade rate, high activated intensity, a high coloration rate and a rating of 80 or higher in the Relative ΔOD at Saturation Test may be prepared. The Relative ΔOD at Saturation Test is described in Example 21. The ratings of the test are defined herein as the result obtained when the optical density of band "A" is divided by the optical density of band "B" and multiplied by 100. It is believed that compounds having a rating of 80 or higher are most valuable for formulating neutral grays, greens and browns for commercial photochromic ophthalmic eyeware.
as §1, §2
as §3, with “10. […]” for “10.”

Row | ΔOD @ Saturation (Band A) [1] | Sensitivity ΔOD/MIN (Band A) [1] | ΔOD @ Saturation (Band B) [1] | Sensitivity ΔOD/MIN (Band B) [1] | Bleach Rate T 1/2 [1] | λ MAX Vis (Band A) [2] | λ MAX Vis (Band B) [2] | Relative ΔOD at Saturation (rating) [3] | Compound
1 | 0.43 | 0.14 ΔOD/MIN | 0.44 | 0.18 ΔOD/MIN | 2.98 min | 484 nm | 603 nm | 98 | COc1ccc(C2(c3ccc(N4CCOCC4)cc3)C=Cc3c4c(c5cc(OC)c(OC)cc5c3O2)-c2ccccc2C4c2ccccc2)cc1 (stereo not drawn) [Example 8, 3-(4-methoxyphenyl)-3-(4-morpholinophenyl)-6,7-dimethoxy-13-phenyl-3H, 13H-indeno[2,1-f]naphtho[1,2-b]pyran]
2 | 0.60 | 0.18 ΔOD/MIN | 0.59 | 0.23 ΔOD/MIN | 3.4 min | 477 nm | 597 nm | 102 | COc1ccc(C2(c3ccc(N4CCOCC4)cc3)C=Cc3c4c(c5cc(OC)c(OC)cc5c3O2)-c2ccccc2C4(C)C)cc1 (stereo not drawn) [Example 9, 3-(4-methoxyphenyl)-3-(4-morpholinophenyl)-6,7-dimethoxy-13,13-dimethyl-3H,13H-indeno[2,1-f]naphtho[1,2-b]pyran]
3 | 0.41 | 0.20 ΔOD/MIN | 0.50 | 0.28 ΔOD/MIN | 2.17 min | 500 nm | 615 nm | 82 | COc1ccc(C2(c3ccc(N(C)C)cc3)C=Cc3c4c(c5cc(OC)c(OC)cc5c3O2)-c2ccccc2C4(C)C)cc1 (stereo not drawn) [Example 10, 3-(4-methoxyphenyl)-3-(4-dimethylaminophenyl)-6,7-dimethoxy-13,13-dimethyl-3H,13H-indeno[2,1-f]naphtho[1,2-b]pyran]
4 | 0.66 | 0.28 ΔOD/MIN | 0.62 | 0.25 ΔOD/MIN | 3.05 min | 482 nm | 581 nm | 106 | COc1ccc(C2(c3ccc(OC)cc3)C=Cc3c4c(c5c(OC)c(OC)c(OC)cc5c3O2)-c2ccccc2C4c2ccccc2)cc1 (stereo not drawn) [Example 11, 3,3-di(4-methoxyphenyl)-6,7,8-trimethoxy-13-phenyl-3H,13H-indeno[2,1-f]naphtho[1,2-b]pyran]
5 | 0.46 | 0.26 ΔOD/MIN | 0.43 | 0.27 ΔOD/MIN | 2.17 min | 480 nm | 632 nm | 106 | CCC1(O)c2cc(OC)c(OC)cc2-c2c1c1c(c3cc(OC)c(OC)cc23)OC(c2ccc(OC)cc2)(c2ccc(N3CCOCC3)cc2)C=C1 (stereo not drawn) [Example 12, 3-(4-methoxyphenyl)-3-(4-morpholinophenyl)-6,7,10,11-tetramethoxy-13-hydroxy-13-ethyl-3H,13H-indeno[2,1-f]naphtho[1,2-b]pyran]
6 | 0.39 | 0.27 ΔOD/MIN | 0.37 | 0.25 ΔOD/MIN | 1.42 min | 482 nm | 634 nm | 105 | CCCCC1(O)c2cc(OC)c(OC)cc2-c2c1c1c(c3cc(OC)c(OC)cc23)OC(c2ccc(OC)cc2)(c2ccc(N3CCOCC3)cc2)C=C1 (stereo not drawn) [Example 13, 3-(4-methoxyphenyl)-3-(4-morpholinophenyl)-6,7,10,11-tetramethoxy-13-hydroxy-13-butyl-3H,13H-indeno[2,1-f]naphtho[1,2-b]pyran]
7 | 0.41 | 0.24 ΔOD/MIN | 0.40 | 0.22 ΔOD/MIN | 1.8 min | 485 nm | 600 nm | 103 | CCC1(O)c2ccccc2-c2c1c1c(c3cc(OC)c(OC)cc23)OC(c2ccccc2)(c2ccc(N3CCOCC3)cc2)C=C1 (stereo not drawn) [Example 14, 3-(4-morpholinophenyl)-3-phenyl-6,7-dimethoxy-13-hydroxy-13-ethyl-3H,13H-indeno[2,1,-f]naphtho[1,2-b]pyran]
8 | 0.37 | 0.29 ΔOD/MIN | 0.22 | 0.18 ΔOD/MIN | 1.27 min | 457 nm | 579 nm | 168 | CCCCC1(O)c2ccccc2-c2c1c1c(c3cc(OC)c(OC)cc23)OC(c2ccc(OC)cc2)(c2ccc(OC)cc2)C=C1 (stereo not drawn) [Example 15, 3,3-di(4-methoxyphenyl)-6,7-dimethoxy-13-hydroxy-13-butyl-3H,13H-indeno[2,1,-f]naphtho[1,2-b]pyran]
9 | 0.37 | 0.22 ΔOD/MIN | 0.35 | 0.19 ΔOD/MIN | 1.88 min | 485 nm | 600 nm | 106 | CCCCC1(O)c2ccccc2-c2c1c1c(c3cc(OC)c(OC)cc23)OC(c2ccccc2)(c2ccc(N3CCOCC3)cc2)C=C1 (stereo not drawn) [Example 16, 3-(4-morpholinophenyl)-3-phenyl-6,7-dimethoxy-13-hydroxy-13-butyl-3H,13H-indeno[2,1,-f]naphtho[1,2-b]pyran]
